One data set relates to HepG2. Description: MTT inhibition of tumor cells in vitro (Example 3). It is filed as cell-based, Human. To be noted: Homo sapiens, HepG2, 48 h, 40 μg/mL, read-out: Inhibition rate, HepG2.
For another data set, the system named is A875. Description: MTT inhibition of tumor cells in vitro (Example 3). In kind it is cell-based, Human. To be noted: Homo sapiens, A875, 40 μg/mL, 48 hours, read-out: Inhibition rate, A875. Here is the method: (§1) Human resources tumor cell line […], […], HT29, MCF-7 and A875 were provided by Cancer Hospital, Chinese Academy of Medical Sciences.
(§2) Cells were passaged every 2 or 3 days, and all the experiments were carried out on exponentially growing cells.
(§3) All cells were cultured in a humidified atmosphere (5% CO2 and […]), and passaged every 2 or 3 days. Cells were harvested on exponentially growing phase, and cell suspension was prepared with 2×10^4 cells/mL, added with 100 μL per well of 96-well plates, and cultured for 24 h in incubator. 100 μL medium without cells was added per well as blank group.
(§4) Compound (1), (2), (3), (4), (7) or (8) was dissolved in DMSO respectively, and diluted with 1640 medium at a final concentration of 400 μg/mL, so as to that of the Cisplatin. Cells were divided into 9 groups, they were blank group, model group, Compound (1), (2), (3), (4), (7) and (8) groups, and Cisplatin group as the positive one, 6 wells per group.
(§5) Before drug administration, supernatant of each well was removed and fresh 1640 medium was added, 180 μL per well. Compounds and Cisplatin were added with 20 μL per well respectively at a final concentration of 40 μg/mL. Wells of blank and model groups were added with 0.5% DMSO, 20 μL per well. 48 hours later, 20 μL MTT was added per well and continued to culture for 4 hours, then the supernatant was replaced carefully and DMSO was added with 150 μL per well to end the experiment. The 96-well plates were shaken for 10 mins and read the absorbance at 490 nm. The Inhibition rate was calculated.
(§6) Inhibition rate=[(ODmodel−ODblank)−(ODdrugs−ODblank)]/(ODmodel−ODblank)×100%
(§7) The MTT experiment was repeated three times.

A further data set concerns BGC823. Description: MTT inhibition of tumor cells in vitro (Example 3). In kind it is cell-based, Human. The note with it: Homo sapiens, BGC-823, 48 h, 40 μg/mL, read-out: Inhibition rate, BGC823. Here is the method: as §1, §2, §3, §4, §5, §6, §7
The next data set has as its system HT29. Description: MTT inhibition of tumor cells in vitro (Example 3). It is filed as cell-based, Human. The note with it: Homo sapiens, HT-29, 48 h, 40 μg/mL, read-out: Inhibition rate, HT29. Here is the method:
as §1, §2, §3, §4, §5, §6, §7

The next data set deals with MCF-7. Nature of the data set: MTT inhibition of tumor cells in vitro (Example 3). In kind it is cell-based, Human. To be noted: Homo sapiens, MCF7, 40 μg/mL, 48 hours, read-out: Inhibition rate, MCF-7. Here is the method: as §1, §2, §3, §4, §5, §6, §7
A further data set relates to HepG2 human heptoma. Nature of the data set: Anti-HepG2 human heptoma in BALB/c (nu/nu) nude mice. To be noted: for body weight of HepG2-bearing nude mice / tumor volume of HepG2-bearing nude mice: mg/kg BW: total saponins 1.5, Compound 1, combination 1 & 39, Cytoxan 40, Sc. Here is the method:
70 male BALB/c (nu/nu) nude mice (18-20 g, License NO. SCXK (BJ) 2009-0017, National Institutes for Food and Drug Control.) were adaptively bred for one week, and then used in the following experiment.
Human resources hepatoma cell line HepG2 was cultured in RPMI-1640 medium containing 100 U/mL Penicillin and 100 μg/mL Streptomycin with 10% fetal bovine serum and maintained at 37° C. in a humidified atmosphere (5% CO2 and […]).
70 BALB/c (nu/nu) nude mice were adaptively bred for 1 week, HepG2 cells were inoculated subcutaneously into the back of nude mice, 1×10^7 cells per mouse. […] 3 days after inoculation, mice of every therapeutic group were all given the relevant compounds or drugs for 3 weeks, and others were given isodose physiological saline.
The body weight and the size of tumor were measured and recorded weekly. The tumor volume was calculated with the formula below:
tumor volume V=π/6×a×b^2 (a, b means the transverse and longitudinal length of tumor)
At the end of administration, mice were fastened for 8 hours, weighed the fasting body weight, dropped off eyeball to collect blood, centrifuged and collected serum for next experiment. The tumors were departed and weighed. Tumor Index and inhibition rate were calculated as below:
Tumor Index=Tumor mass (mg)/body weight of animal (g)
Inhibition rate=(Average tumor massControl group−Average tumor massadministration group)/Average tumor massControl group×100%
Mice in the model group were injected with sterile water (10 ml/kg BW), Sc. All the animals were treated at 9 am for 3 weeks.
Determination of body weights: Body weights of animals were weighed and recorded once a week.
Tumor measurement: The transverse and longitudinal lengths of tumor were measured with vernier caliper weekly.
End of the experiment: After mice being administrated for 3 weeks (21 days), the experiment was terminated.

Experimental findings from patent US20170143748A1, “ANTI-TUMOR PHARMACEUTICAL APPLICATION OF PENTACYCLIC TRITERPENE SAPONIN COMPOUNDS OF SZECHUAN MELANDIUM ROOT” (priority 2014, published 2017) are described below.

“And” between values parts separate entries of the source, which are not always exact repeats. Identical values can stand only once. Where only a bound is given, the exact number is not on record here.

`COC(=O)C1CC(O[C@H]2CC[C@]3(C)[C@H]4C=CC5[C@@H]6CC(C)(C)CC[C@]6(C(=O)OC6OC(C)C(OC(=O)/C=C/c7ccc(C)cc7)C(OC(C)=O)C6OC6CC(C)C(O)C(O)C6O)[C@H](O)C[C@@]5(C)[C@]4(C)CC[C@H]3[C@]2(C)C=O)C(OC2OC(CO)C(O)C(O)C2O)C(OC2OCC(O)C(O)C2O)C1O` (stereo partly shown) [Compound (2), sinocrassuloside VII]: the inhibition (in general, the change of the read-out against control, counted positive when it falls) at 40 µg/mL in the data set on HepG2 is > 90%; in the data set with A875 it was 77.5 ± 9.94%; with BGC823, > 90%; in the data set with HT29, > 90%; with MCF-7 it was 91 ± 8.68%. Also, the “body weight of HepG2-bearing nude mice” value in the data set on HepG2 human heptoma (0 W) came out at 19.50 ± 0.53; in the data set on HepG2 human heptoma (1 W), 21.60 ± 0.84; in the data set on HepG2 human heptoma (2 W), 22.40 ± 1.17; in the data set with HepG2 human heptoma (3 W) it was 22.70 ± 0.95. For the same molecule, the “tumor volume of HepG2-bearing nude mice” value amounted to 564.84 ± 474.95 with HepG2 human heptoma (1 W), 841.36 ± 577.72 in the data set on HepG2 human heptoma (2 W) and 911.76 ± 460.22 in the data set with HepG2 human heptoma (3 W). For the same molecule, the Inhibition rate with HepG2 human heptoma (HepG2-bearing nude mice, after 3 weeks, from average tumor mass vs model) is 87.42% and 87.32%.
